Measured values reported in patent publication US9187487B2, “Azaindole derivatives as tyrosine kinase inhibitors” (PRINCIPIA BIOPHARMA, INC., priority 2011, dated 2015).

Molecular target: recombinant JAK3 (catalytic domain, aa 781-1124) (Homo sapiens (Human), UniProt P52333)
Assay: JAK3 Caliper Peptide Phosphorylation Assay
Type: biochemical
Settings: fluorescently labeled Srctide substrate 1 uM; ATP at 1×Km (2 uM); 2 hours at 25° C.
Method: JAK3 Caliper Peptide Phosphorylation Assay
Phosphorylation of the appropriate peptide substrate (fluorescently labeled Srctide) by recombinant JAK3 (catalytic domain, aa 781-1124) was measured in the presence and absence of different concentrations of test compounds. Test compound, enzyme, fluorescently labeled substrate, and cofactors (ATP and Mg^2+) were combined in a well of a microtiter plate and incubated for 2 hours at 25° C. The composition of the reaction buffer was 100 mM HEPES pH 7.5, 5 mM MgCl2, 0.01% Triton-X 100, 0.1% Bovine Serum Albumin, and 1% DMSO. Enzyme concentration in the final reaction mixture was 0.5 nM while peptide substrate was at 1 uM. ATP was used at 1×Km concentration corresponding to 2 uM. Serial dilutions (3-fold steps) of compounds were prepared in DMSO. At the end of the incubation, the reaction was stopped by the addition of 20 mM EDTA. Substrate and product (i.e. phosphorylated substrate) were separated electrophoretically and both were quantified by fluorescence intensity using the microfluidics-based LabChip 3000 Drug Discovery System from Caliper Life Sciences. Conversion for each well was calculated and plotted as function of test compound concentration. IC50 value was determined by fitting the data to a 4-parameter logistic model by non-linear regression (XLfit model 205). In every assay, Staurosporine was tested in the same manner as reference compound. Selectivity for JAK3 was determined using commercially available kinase cross-screening services (DiscoveRx, San Diego, Calif.).

Sequence of recombinant JAK3 (catalytic domain, aa 781-1124) (P52333 781-1124): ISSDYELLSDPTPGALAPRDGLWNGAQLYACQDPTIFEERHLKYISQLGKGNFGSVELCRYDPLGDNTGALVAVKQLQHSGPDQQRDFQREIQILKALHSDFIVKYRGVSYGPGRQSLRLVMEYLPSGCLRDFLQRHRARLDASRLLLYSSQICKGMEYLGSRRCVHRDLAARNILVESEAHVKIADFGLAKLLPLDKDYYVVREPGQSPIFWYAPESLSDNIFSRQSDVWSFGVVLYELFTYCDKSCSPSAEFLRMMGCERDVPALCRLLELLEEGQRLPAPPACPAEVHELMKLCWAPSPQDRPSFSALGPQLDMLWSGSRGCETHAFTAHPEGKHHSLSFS

SMILES	IC50
CC(C)(C)C(=O)c1c[nH]c2ncc(Nc3ccc(C=C(C#N)c4nccs4)cc3)nc12 [compound 82, 3-(4-((7-pivaloyl-5H-pyrrolo[2,3-b]pyrazin-2-yl)amino)phenyl)-2-(thiazol-2-yl)acrylonitrile]	38.3 nM
CC(C)NC(=O)c1c[nH]c2ncc(Nc3ccc(C=C(C#N)C(=O)N4CCNCC4)cc3)nc12 [compound 83, 2-((4-(2-cyano-3-oxo-3-(piperazin-1-yl)prop-1-en-1-yl)phenyl)amino)-N-isopropyl-5H-pyrrolo[2,3-b]pyrazine-7-carboxamide]	0.2 nM
CN(C(=O)C(C#N)=Cc1ccc(Nc2cnc3[nH]cc(C(=O)C(C)(C)C)c3n2)cc1)c1ccccc1 [compound 85, 2-cyano-N-methyl-N-phenyl-3-(4-((7-pivaloyl-5H-pyrrolo[2,3-b]pyrazin-2-yl)amino)phenyl)-acrylamide]	5.5 nM
CN(C)CCN1C(=O)SC(=Cc2ccc(Nc3cnc4[nH]cc(C(=O)C(C)(C)C)c4n3)cc2)C1=O [compound 88, 3-(2-(dimethylamino)ethyl)-5-(4-((7-pivaloyl-5H-pyrrolo[2,3-b]pyrazin-2-yl)amino)-benzylidene)thiazolidine-2,4-dione]	3 nM
CC(C)(C)C(=O)c1c[nH]c2ncc(Nc3ccc(C=C4SC(=O)N(CCN)C4=O)cc3)nc12 [compound 89, 3-(2-aminoethyl)-5-(4-((7-pivaloyl-5H-pyrrolo[2,3-b]pyrazin-2-yl)amino)benzylidene)thiazolidine-2,4-dione]	3 nM
CN(C)C(=O)C(C#N)=Cc1ccc(-c2cnc3[nH]cc(C(=O)C(C)(C)C)c3n2)cc1 [compound 96, 2-cyano-N,N-dimethyl-3-(4-(7-pivaloyl-5H-pyrrolo[2,3-b]pyrazin-2-yl)phenyl)acrylamide]	680 nM
CN(C)C(=O)C(C#N)=Cc1cccc(-c2cnc3[nH]cc(C(=O)C(C)(C)C)c3n2)c1 [compound 97, 2-cyano-N,N-dimethyl-3-(3-(7-pivaloyl-5H-pyrrolo[2,3-b]pyrazin-2-yl)phenyl)acrylamide]	104 nM
CN(C)C(=O)C(C#N)=Cc1cccc(Oc2cnc3[nH]cc(C(=O)C(C)(C)C)c3n2)c1 [compound 100, 2-cyano-N,N-dimethyl-3-(3-((7-pivaloyl-5H-pyrrolo[2,3-b]pyrazin-2-yl)oxy)phenyl)acrylamide]	> 5000 nM
CC(C)(C)C(=O)c1c[nH]c2ncc(-c3cccc(NC(=O)C(C#N)=CC4CC4)c3)nc12 [compound 102, 2-cyano-3-cyclopropyl-N-(3-(7-pivaloyl-5H-pyrrolo[2,3-b]pyrazin-2-yl)phenyl)acrylamide]	345 nM
